Experimental data taken from paper PMC10952572, “Improved PIEZO1 agonism through 4‐benzoic acid modification of Yoda1” (British Journal of Pharmacology, 2023).

Experiments:
hPIEZO1 [1] = target: T1, hPIEZO1 (Homo sapiens, UniProt Q92508); assay: Intracellular Ca2+ measurement (Fura-2) in hPIEZO1-TREx cells; format: cell-based; conditions: 10 μM compound, hPIEZO1-TREx cells, paired with 10 μM Yoda1
T1 construct: expressed in transfected cells
Description: HEK T‐REx™ 293 cells (Thermo Fisher Cat #R71007, RRID:CVCL_D585) that overexpress hPIEZO1 upon induction with tetracycline were generated as previously described (Rode et al., [2017]). PIEZO1‐GFP was used as a PCR template to clone hPIEZO1 coding sequence into pcDNA™4/TO between HindIII and EcoRI restriction sites. PIEZO1 was amplified as two fragments using the following primers: (HindIII‐PIEZO1‐Fw: […] and BamHI‐Int.PIEZO1‐Rv: […]) and (BamHI‐Int. PIEZO1‐Fw: […] and EcoRI‐PIEZO1‐Rv: […]). The two fragments were fused using BamHI restriction site, resulting in the full‐length PIEZO1 coding sequence with the c4182a silent mutation. HEK T‐REx™ 293 cells (Invitrogen) were transfected with pcDNA4/TO‐PIEZO1 using Lipofectamine 2000 (Thermo Fisher Scientific). Subsequently, cells were treated with 10 μg·ml^−1 blasticidin and 200 μg·ml^−1 zeocin (InvivoGen) to select stably transfected cells. Single‐cell clones were isolated and analysed individually. Expression was induced by treating the cells for 24 h with 10 ng·ml^−1 tetracycline and analysed by quantitative RT‐PCR and Western blot. These cells are referred to as hPIEZO1‐TREx.
(§1) HEK 293‐TREx cells and their stably transfected derivatives or transiently transfected HEK 293 or HeLa cells were seeded at a density of 7.5 × 10^4 cells per well into poly‐D‐lysine‐coated 96‐well plates. The plates were either commercially pre‐coated with poly‐D‐lysine (Greiner Bio‐One #655946) or (Greiner Bio‐One #655090) were coated in‐house with 35 μl of a 10 μg·ml^−1 poly‐D‐lysine (Bio‐Techne, Cultrex # 3439‐100‐01) in sterile deionised water per well for at least 24 h and rinsed three times with 100 μl per well sterile D‐PBS before addition of cells. HUVECs were seeded into tissue culture‐treated 96‐well plates (Greiner Bio‐One #655090) at a density of either 2.5 × 10^4 cells 24 h before experimentation or 1.25 × 10^4 cells 48 h before experimentation. Cells were incubated with 2 μM Fura‐2‐AM (Molecular Probes™) in the presence of 0.01% (wt./vol.) pluronic F127 (Sigma‐Aldrich #P2443) in standard bath solution (SBS) for 1 h at 37°C. Cells were washed with SBS for 30 min at room temperature. Alternatively, if inhibitors were being tested, these were added at this time, immediately following a wash in SBS. (−)‐Englerin A (Akbulut et al., [2015]) was used in SBS containing 0.01% pluronic acid as a dispersing agent to minimise aggregation of compound. Unless otherwise stated, the final concentration of DMSO was 0.2% (vol./vol). Working 2000× stock solutions of test compounds were freshly made in DMSO and diluted 1000‐fold in SBS during the 30 min SBS wash/inhibitor pre‐incubation period to obtain 2× solutions for injection. When testing the highest concentration of Yoda1, KC159 and KC289 (30 μM), the final DMSO concentration was 0.6% (vol./vol.). Measurements were made at room temperature on a 96‐well fluorescence plate reader (FlexStation 3, Molecular Devices, Sunnyvale, CA, USA) controlled by SoftMax Pro software v7.0.3. Recipient wells containing 80 μl SBS/0.2% (vol./vol.) DMSO vehicle or inhibitor compound received 80 μl 2× compound at an injection rate of 1 μl·s^−1, and the pipette introduced liquids from a height setting of 70 μl. No trituration was performed. For recordings using Fura‐2, the change in intracellular Ca was indicated as the ratio of Fura‐2 emission (510 nm) intensities at 340 and 380 nm excitation. Photomultipliers were set to medium sensitivity. SBS contained 130 mM NaCl, 5 mM KCl, 8 mM D‐glucose, 10 mM HEPES, 1.2 mM MgCl2 and 1.5 mM CaCl2, and the pH was adjusted to 7.4 with NaOH. The solution was filtered through a 0.2 μm bottle‐top filter prior to use and handled aseptically thereafter.
For intracellular Ca^2+ (Ca^2+i) measurements, technical intra‐experiment replicates were used to improve confidence in the data. Analysis of individual experiments was performed to obtain mean ± SEM values. […]

mPIEZO1 [2] = target: T2, mPIEZO1 (Mus musculus, UniProt E2JF22); assay: Intracellular Ca2+ measurement (Fura-2) in mPIEZO1-TREx cells; format: cell-based; conditions: for Peak ΔCa2+i (ΔF340/380), median fold difference compared to Yoda1: 10 μM compound, mPIEZO1-TREx cells, paired with 10 μM Yoda1; for Ca2+ response (agonist effect): 10 μM, cells overexpressing mPIEZO1, compared with Yoda1
T2 construct: expressed in transfected cells
T2 sequence (E2JF22 whole entry): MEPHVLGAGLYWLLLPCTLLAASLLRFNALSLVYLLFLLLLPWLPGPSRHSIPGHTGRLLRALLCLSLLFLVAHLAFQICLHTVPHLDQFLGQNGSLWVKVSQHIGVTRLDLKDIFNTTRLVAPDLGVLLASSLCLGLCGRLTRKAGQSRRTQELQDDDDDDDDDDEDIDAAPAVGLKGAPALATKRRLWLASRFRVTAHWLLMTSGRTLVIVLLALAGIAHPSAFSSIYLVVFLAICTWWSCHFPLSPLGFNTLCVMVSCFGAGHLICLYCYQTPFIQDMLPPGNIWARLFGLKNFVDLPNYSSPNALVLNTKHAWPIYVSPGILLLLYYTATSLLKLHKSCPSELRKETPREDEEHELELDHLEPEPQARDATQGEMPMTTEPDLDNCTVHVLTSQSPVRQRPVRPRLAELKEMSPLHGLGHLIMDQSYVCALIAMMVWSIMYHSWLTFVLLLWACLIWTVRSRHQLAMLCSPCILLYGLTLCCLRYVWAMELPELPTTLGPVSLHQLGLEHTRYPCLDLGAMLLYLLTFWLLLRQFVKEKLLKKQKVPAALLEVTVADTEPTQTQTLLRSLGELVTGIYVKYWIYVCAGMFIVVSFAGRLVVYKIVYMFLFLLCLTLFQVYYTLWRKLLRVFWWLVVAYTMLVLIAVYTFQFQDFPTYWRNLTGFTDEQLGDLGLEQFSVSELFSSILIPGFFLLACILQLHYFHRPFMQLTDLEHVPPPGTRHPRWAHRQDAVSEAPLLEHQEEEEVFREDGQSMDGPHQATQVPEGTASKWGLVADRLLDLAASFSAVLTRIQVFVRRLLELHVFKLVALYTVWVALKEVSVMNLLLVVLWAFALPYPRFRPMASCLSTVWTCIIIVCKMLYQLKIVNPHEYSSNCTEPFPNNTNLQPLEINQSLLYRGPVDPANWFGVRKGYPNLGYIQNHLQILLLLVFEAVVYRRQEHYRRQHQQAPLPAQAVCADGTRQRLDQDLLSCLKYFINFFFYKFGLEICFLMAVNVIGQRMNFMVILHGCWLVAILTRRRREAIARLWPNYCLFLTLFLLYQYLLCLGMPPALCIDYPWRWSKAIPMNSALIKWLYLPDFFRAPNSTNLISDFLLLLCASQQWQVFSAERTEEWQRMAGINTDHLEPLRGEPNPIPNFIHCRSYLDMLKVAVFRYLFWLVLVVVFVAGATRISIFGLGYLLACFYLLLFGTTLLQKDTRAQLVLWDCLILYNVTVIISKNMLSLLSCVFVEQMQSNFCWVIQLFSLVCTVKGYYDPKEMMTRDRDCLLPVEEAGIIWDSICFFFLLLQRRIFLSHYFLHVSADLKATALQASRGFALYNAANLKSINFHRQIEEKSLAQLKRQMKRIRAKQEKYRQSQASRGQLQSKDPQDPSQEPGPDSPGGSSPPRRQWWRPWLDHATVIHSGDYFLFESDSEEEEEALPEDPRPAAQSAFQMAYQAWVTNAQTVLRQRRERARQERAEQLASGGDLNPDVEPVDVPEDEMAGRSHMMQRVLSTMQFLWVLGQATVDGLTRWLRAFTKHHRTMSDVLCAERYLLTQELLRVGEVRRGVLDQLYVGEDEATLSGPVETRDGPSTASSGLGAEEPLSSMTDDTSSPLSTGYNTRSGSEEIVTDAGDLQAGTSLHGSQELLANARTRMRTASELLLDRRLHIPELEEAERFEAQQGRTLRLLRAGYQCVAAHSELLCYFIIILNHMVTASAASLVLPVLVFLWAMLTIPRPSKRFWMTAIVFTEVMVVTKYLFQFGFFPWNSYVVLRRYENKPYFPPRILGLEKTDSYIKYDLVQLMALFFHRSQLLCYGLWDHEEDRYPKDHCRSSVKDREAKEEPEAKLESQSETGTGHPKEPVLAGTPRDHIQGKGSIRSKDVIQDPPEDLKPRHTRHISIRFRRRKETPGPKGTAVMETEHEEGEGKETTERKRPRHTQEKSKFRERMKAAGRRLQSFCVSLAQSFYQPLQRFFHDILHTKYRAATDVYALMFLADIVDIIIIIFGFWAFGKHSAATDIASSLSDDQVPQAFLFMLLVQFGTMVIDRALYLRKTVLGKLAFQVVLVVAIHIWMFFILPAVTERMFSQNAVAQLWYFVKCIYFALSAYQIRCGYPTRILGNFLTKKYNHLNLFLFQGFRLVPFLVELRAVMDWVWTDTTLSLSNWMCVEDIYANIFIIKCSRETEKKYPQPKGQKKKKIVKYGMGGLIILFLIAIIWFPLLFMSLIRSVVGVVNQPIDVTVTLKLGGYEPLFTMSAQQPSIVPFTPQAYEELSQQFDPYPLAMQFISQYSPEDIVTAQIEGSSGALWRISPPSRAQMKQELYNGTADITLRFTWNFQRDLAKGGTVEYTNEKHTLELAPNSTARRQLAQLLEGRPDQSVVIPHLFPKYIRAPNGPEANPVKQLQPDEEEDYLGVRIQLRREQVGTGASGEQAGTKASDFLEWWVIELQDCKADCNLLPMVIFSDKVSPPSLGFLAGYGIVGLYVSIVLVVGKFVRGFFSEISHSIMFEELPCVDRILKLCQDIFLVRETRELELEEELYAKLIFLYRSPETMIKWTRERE
Description: HEK T‐REx™ cells that constitutively overexpress murine PIEZO1 were generated as previously described (Blythe et al., [2019]). pcDNA3 mouse PIEZO1 (mPIEZO1) IRES green fluorescent protein (GFP), a gift from Ardem Patapoutian (Coste et al., [2010]), was used as a template to clone the mPIEZO1 coding sequence into pcDNA4/TO. Overlapping mPIEZO1 (forward primer 5′‐[…]‐3′ and reverse primer 5′‐[…]‐3′) and pcDNA4/TO (forward primer 5′‐[…]‐3′ and reverse primer 5′‐[…]‐3′) PCR products were assembled using Gibson Assembly (New England Biolabs). […] HEK T‐REx™ 293 cells were transfected with pcDNA4/TO‐mPIEZO1 using Lipofectamine 2000 (Invitrogen) and treated with 200 μg·ml^−1 zeocin to select stably transfected cells. Individual clones were isolated and analysed for expression using Yoda1 and intracellular Ca^2+ measurements. These cells are referred to as mPIEZO1‐TREx.
as §1
For intracellular Ca^2+ (Ca^2+i) measurements, technical intra‐experiment replicates were used to improve confidence in the data. Analysis of individual experiments was performed to obtain mean ± SEM values. For collated analysis of independent experiments, where normal distributions were not evidenced by Shapiro–Wilk normality tests, non‐parametric distributions were assumed, and therefore, median values were used. […]

hPIEZO1 [3] = target: T1, hPIEZO1; assay: Pre-treatment with analogue before Yoda1 stimulus, Ca2+ assay in hPIEZO1-TREx cells; format: cell-based; conditions: for 2 μM Yoda1-evoked peak ΔCa2+i (ΔF340/380), median fold difference compared to DMSO pretreatment: hPIEZO1-TREx, 10 μM compound 30 min pretreatment before 2 μM Yoda1; for Inhibition of the action of Yoda1: hPIEZO1 channels, 10 μM for 30 min prior to Yoda1
Experimental: as §1
In view of the effect of Dooku1 described above, we tested if there are inhibitory actions of the new Yoda1 analogues by pre‐treating cells at 10 μM for 30 min prior to adding 2 μM Yoda1 (Figures 9 and S9, SI 1). All except KC157 and KC161 inhibited the action of Yoda1 on hPIEZO1 channels (Figures 9a and S9, SI 1). […] KC159 and KC289 were agonists, and so they may inhibit the effect of Yoda1 simply by pre‐activating the channels. KC158, KC161 and KC162 are also agonists of mPIEZO1 channels (Figure 3). […] Only the 2‐benzoic acid analogue (KC157) lacks agonist or antagonist properties.

mPIEZO1 [4] = target: T2, mPIEZO1; assay: Pre-treatment with analogue before Yoda1 stimulus, Ca2+ assay in mPIEZO1-TREx cells; format: cell-based; conditions: mPIEZO1-TREx, 10 μM compound 30 min pretreatment before 0.5 μM Yoda1
mouse portal vein = assay: Wire myography, relaxation of phenylephrine pre-constricted vein
Experimental: Mice were anaesthetised with isoflurane (5% induction and 1.5% maintenance) in 95% O2 according to Schedule 1 procedure approved by the UK Home Office. The portal vein was quickly dissected and placed in Krebs solution. The Krebs PV solution consisted of 118 mM NaCl, 4.7 mM KCl, 2.5 mM CaCl2, 1.2 mM KH2PO4, 1.2 mM MgSO4·7H2O, 25.2 mM NaHCO3 and 11.1 mM glucose. By means of a dissecting microscope, adhering perivascular tissue was carefully removed and the vein was cut into 1 mm segments.
Vein segments were mounted onto two thin stainless steel wires in an isometric myograph (Multi Wire Myograph System 620M from Danish Myograph Technology [DMT]), for which the force transducer was calibrated once per month according to the manufacturer's instructions. The recording chamber was filled with gassed Krebs solution (95% O2/5% CO2, pH 7.4). The segments were then stretched to a normalised internal diameter according to the manufacturer's instructions. The mounted rings were kept in a 5 ml chamber containing Krebs solution at 37°C and continuously bubbled with a gas mixture of 95% O2 and 5% CO2 (pH 7.4). After an equilibration period of 60 min, the contractile function of the vessel was tested by replacing the Krebs solution by 60 mM K^+ solution. Following washout, the vein was contracted once with 10 μM phenylephrine and then Yoda1, KC159 or KC289 was applied with the concentrations of 0.1 to 10 μM. The NOS inhibitor, L‐NAME, (100 μM), was pre‐incubated for 20 min before the PIEZO1 modulator.
Because the anticipated effect of test compounds was to cause vessel relaxation, phenylephrine was applied to induce tension and the maximum value of this tension was defined as 0% relaxation (no relaxation). The value of tension immediately prior to application of phenylephrine was defined as 100% relaxation. Data are normalised to these values because, otherwise, the intrinsic variability in the absolute amount of tension induced by phenylephrine obscured exploration of the relaxant effect of compounds.
OriginPro 2020 was used for the analysis of myography data. Myography traces show readings taken every 0.5 or 1 s and were smoothed with the Savitzky–Golay filter set to 70 points. To compare the agonistic activity of Yoda1 analogues, basal vessel tension prior to compound injection was subtracted. Maximal tension in the presence of PE alone was used to define 0% relaxation. The tension value prior to PE application was defined as 100% relaxation. Following the addition of test compounds, tension readings were taken at the last time point of the treatments and expressed as percentage relaxation.

T1 sequence (Q92508 whole entry): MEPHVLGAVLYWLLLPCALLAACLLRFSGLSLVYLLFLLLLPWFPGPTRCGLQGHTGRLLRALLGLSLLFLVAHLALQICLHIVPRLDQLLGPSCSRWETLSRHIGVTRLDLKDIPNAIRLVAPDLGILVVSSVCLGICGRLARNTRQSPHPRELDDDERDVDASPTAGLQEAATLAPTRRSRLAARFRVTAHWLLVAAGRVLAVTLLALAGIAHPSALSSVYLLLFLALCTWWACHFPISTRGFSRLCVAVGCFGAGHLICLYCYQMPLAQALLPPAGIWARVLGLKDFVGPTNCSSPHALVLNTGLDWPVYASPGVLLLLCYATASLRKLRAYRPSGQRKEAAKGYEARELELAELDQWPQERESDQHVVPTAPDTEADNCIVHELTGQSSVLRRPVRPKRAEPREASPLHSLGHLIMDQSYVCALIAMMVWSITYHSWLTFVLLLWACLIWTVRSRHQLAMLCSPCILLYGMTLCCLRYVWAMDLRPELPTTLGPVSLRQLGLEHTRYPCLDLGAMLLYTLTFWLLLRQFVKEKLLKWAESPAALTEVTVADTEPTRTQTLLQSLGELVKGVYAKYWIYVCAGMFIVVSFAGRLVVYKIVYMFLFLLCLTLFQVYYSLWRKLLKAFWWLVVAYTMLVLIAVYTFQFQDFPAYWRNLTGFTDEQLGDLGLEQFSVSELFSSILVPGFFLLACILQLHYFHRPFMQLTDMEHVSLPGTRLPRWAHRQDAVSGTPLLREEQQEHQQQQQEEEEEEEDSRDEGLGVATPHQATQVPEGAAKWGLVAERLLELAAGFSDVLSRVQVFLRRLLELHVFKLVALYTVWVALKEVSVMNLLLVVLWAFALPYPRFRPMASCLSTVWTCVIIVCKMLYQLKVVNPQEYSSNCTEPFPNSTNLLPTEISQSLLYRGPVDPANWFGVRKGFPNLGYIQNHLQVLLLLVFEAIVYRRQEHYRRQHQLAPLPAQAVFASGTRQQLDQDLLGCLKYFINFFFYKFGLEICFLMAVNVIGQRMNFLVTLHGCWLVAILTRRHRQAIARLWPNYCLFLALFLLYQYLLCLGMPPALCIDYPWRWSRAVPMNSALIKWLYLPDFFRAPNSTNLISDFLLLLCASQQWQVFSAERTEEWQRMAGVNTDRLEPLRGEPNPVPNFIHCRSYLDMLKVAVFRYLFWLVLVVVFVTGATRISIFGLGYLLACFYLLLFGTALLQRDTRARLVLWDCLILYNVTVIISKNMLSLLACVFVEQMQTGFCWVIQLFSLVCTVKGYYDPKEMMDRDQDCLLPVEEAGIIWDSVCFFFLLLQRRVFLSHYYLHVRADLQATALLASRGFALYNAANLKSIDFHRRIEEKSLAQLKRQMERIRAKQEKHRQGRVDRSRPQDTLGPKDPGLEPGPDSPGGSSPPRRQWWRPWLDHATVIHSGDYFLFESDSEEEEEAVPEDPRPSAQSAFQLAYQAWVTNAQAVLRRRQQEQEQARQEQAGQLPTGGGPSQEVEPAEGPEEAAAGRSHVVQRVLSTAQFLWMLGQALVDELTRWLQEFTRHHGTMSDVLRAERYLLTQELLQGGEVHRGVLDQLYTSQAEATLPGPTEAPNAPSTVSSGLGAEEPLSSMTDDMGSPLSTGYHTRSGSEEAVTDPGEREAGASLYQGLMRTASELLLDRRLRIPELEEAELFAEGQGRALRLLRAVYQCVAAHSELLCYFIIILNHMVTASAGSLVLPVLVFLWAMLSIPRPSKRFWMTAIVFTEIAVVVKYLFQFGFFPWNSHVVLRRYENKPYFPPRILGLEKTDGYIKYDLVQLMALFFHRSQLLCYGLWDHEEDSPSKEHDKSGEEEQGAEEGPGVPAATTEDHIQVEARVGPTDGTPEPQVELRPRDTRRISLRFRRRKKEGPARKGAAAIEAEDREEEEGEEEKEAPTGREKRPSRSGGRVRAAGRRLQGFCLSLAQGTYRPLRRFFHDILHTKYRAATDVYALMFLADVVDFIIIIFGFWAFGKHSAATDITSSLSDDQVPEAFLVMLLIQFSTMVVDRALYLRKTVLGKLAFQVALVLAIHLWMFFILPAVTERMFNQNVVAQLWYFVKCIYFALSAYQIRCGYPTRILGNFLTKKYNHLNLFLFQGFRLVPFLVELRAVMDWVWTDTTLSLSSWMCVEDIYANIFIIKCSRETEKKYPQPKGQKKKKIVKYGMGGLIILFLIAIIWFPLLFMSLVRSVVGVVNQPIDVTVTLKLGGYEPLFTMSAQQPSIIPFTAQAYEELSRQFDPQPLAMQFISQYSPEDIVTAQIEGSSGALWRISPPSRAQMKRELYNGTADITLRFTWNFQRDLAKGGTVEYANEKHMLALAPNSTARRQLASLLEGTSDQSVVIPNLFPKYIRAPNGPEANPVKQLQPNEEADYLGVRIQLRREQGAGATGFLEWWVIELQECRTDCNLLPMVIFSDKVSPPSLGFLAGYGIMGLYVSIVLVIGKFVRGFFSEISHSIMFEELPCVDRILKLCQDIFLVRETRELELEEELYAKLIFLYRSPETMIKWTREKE

SMILES | Peak ΔCa2+i (ΔF340/380), median fold difference compared to Yoda1 (hPIEZO1 [1]) | Peak ΔCa2+i (ΔF340/380), median fold difference compared to Yoda1 (mPIEZO1 [2]) | Ca2+ response (agonist effect) (mPIEZO1 [2]) | 2 μM Yoda1-evoked peak ΔCa2+i (ΔF340/380), median fold difference compared to DMSO pretreatment (hPIEZO1 [3]) | Inhibition of the action of Yoda1 (hPIEZO1 [3]) | 0.5 μM Yoda1-evoked peak ΔCa2+i (ΔF340/380), median fold difference compared to DMSO pretreatment (mPIEZO1 [4]) | Effect on responses to phenylephrine (mouse portal vein; 10 μM Dooku1) | Effect of pre-incubation on relaxations evoked by PIEZO1 agonists (mouse portal vein; 10 μM Dooku1 pre-incubation, 30 min)
NC(=O)c1cccc(-c2nnc(SCc3c(Cl)cccc3Cl)s2)c1 [KC162] | −3.7 fold | −3.7 fold | agonist effects | −2.5 fold | inhibit the Yoda1 response | −8.2 fold |  | 
Clc1cccc(Cl)c1CSc1nnc(-c2ccc[nH]2)o1 [Dooku1, reference compound] |  |  |  |  |  |  | consistently inhibited responses to phenylephrine | reduces relaxations evoked by KC159 and KC289
NC(=O)c1ccc(-c2nnc(SCc3c(Cl)cccc3Cl)s2)cc1 [KC161] | −23.6 fold | −3.8 fold | agonist effects |  |  | −6.5 fold |  | 
O=C(O)c1cccc(-c2nnc(SCc3c(Cl)cccc3Cl)s2)c1 [KC158] | −11.7 fold | −2.0 fold | agonist effects | −3.8 fold | inhibit the Yoda1 response | −4.9 fold |  | 
